The record followed here is patent US20100317624A1 (ASTRAZENECA AB, priority 2009, published 2010).

Structures are written as SMILES.

For this assay, the target named is S. aureus GyrB ATPase (Staphylococcus aureus, UniProt P0A0K8). The experiment in a line: S. aureus GyrB ATPase inhibition (ammonium molybdate/malachite green phosphate detection). Conditions: compound at 1 μM; inhibition of S. aureus GyrB ATPase; read-out: Percent Inhibition (1 μM). The class given is biochemical. The procedure: S. aureus GyrB ATPase Inhibition Activity: Compounds may be tested for inhibition of S. aureus GyrB ATPase activity using an ammonium molybdate/malachite green-based phosphate detection assay (Lanzetta, P. A., L. J. Alvarez, P. S. Reinach, and O. A. Candia, 1979, 100: 95-97). Assays can be performed in multiwell plates in 30 μl reactions containing: 50 mM Hepes buffer pH 7.5, 75 mM ammonium acetate, 8.0 mM magnesium chloride, 0.5 mM ethylenediaminetetraacetic acid, 5% glycerol, 1.0 mM 1,4-Dithio-DL-threitol, 200 nM bovine serum albumin, 1.0 μg/ml sheared salmon sperm DNA, 250 pM E. coli GyrA, 250 pM S. aureus GyrB, 250 μM ATP, and compound in dimethylsulfoxide. Reactions can be quenched with 30 μl of ammonium molybdate/malachite green detection reagent containing 1.2 mM malachite green hydrochloride, 8.5 mM ammonium molybdate tetrahydrate, and 1 M hydrochloric acid. Plates can be read in an absorbance plate reader at 650 nm and percent inhibition values can be calculated using dimethylsulfoxide (2%)-containing reactions as 0% inhibition and EDTA-containing ([…]) reactions as 100% inhibition controls. An IC50 measurement of compound potency for each compound can be determined from reactions performed in the presence of 10 different compound concentrations.
Sequence of S. aureus GyrB ATPase (P0AES4 whole entry): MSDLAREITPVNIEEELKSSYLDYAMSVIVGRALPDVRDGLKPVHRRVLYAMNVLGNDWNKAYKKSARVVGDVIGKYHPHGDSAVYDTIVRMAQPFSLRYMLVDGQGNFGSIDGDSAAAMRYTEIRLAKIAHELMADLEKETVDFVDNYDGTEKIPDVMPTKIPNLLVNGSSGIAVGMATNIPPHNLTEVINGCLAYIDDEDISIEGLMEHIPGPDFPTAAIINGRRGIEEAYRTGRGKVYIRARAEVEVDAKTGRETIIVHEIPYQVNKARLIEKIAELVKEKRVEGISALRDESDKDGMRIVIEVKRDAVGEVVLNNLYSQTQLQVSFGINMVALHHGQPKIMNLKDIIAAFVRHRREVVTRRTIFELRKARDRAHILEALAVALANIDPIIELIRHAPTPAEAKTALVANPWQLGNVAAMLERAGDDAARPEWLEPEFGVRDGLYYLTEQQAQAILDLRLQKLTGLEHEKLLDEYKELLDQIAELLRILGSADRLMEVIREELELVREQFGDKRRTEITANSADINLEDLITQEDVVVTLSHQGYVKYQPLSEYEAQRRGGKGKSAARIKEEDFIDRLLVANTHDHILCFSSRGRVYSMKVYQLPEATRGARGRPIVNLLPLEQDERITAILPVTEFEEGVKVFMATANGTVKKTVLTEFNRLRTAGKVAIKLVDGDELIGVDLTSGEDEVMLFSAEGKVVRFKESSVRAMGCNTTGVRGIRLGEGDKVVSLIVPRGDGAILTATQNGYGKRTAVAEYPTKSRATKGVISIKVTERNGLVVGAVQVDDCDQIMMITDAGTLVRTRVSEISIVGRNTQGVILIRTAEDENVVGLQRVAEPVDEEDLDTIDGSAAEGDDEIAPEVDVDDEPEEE
Sequence of S. aureus GyrB ATPase (P0A0K8 whole entry): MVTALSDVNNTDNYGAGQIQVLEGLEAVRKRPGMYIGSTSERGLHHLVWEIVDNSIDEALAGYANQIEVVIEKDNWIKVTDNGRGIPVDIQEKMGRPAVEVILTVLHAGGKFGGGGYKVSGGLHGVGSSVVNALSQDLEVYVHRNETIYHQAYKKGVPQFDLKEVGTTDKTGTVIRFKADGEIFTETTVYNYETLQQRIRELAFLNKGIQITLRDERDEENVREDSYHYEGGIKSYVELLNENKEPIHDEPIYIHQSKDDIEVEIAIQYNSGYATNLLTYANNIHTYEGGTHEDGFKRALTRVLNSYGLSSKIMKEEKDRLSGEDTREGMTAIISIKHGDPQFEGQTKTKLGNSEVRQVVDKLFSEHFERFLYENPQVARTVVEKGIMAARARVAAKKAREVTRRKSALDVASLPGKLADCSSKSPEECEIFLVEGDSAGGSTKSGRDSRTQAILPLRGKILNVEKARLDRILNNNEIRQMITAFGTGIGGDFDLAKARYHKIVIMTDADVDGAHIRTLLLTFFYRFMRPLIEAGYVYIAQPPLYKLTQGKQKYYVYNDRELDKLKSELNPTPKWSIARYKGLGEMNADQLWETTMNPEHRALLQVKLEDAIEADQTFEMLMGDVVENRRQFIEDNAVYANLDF
As to `CCNC(=O)Nc1cc(-c2nc(C(F)(F)F)cs2)c(-c2ccc3c(c2)c(=O)c(C(=O)OCCOC(=O)CC)cn3C(COC)COC)cn1` [Example 42, 2-(propionyloxy)ethyl 1-(1,3-dimethoxypropan-2-yl)-6-(6-(3-ethylureido)-4-(4-(trifluoromethyl)thiazol-2-yl)pyridin-3-yl)-4-oxo-1,4-dihydroquinoline-3-carboxylate], the inhibition (commonly the change of the read-out against control, counted positive when it falls) at 1 µM was 104%.
Next, `CCNC(=O)Nc1cc(-c2nc(C(F)(F)F)cs2)c(-c2ccc3c(c2)c(=O)c(C(=O)OCCOC(=O)C(C)C)cn3C(COC)COC)cn1` [Example 43, 2-(isobutyryloxy)ethyl 1-(1,3-dimethoxypropan-2-yl)-6-(6-(3-ethylureido)-4-(4-(trifluoromethyl)thiazol-2-yl)pyridin-3-yl)-4-oxo-1,4-dihydroquinoline-3-carboxylate]: 103%; `CCNC(=O)Nc1cc(-c2nc(C(F)(F)F)cs2)c(-c2ccc3c(c2)c(=O)c(C(=O)OCCOC(=O)C(C)(C)C)cn3C(COC)COC)cn1` [Example 44, 2-(pivaloyloxy)ethyl 1-(1,3-dimethoxypropan-2-yl)-6-(6-(3-ethylureido)-4-(4-(trifluoromethyl)thiazol-2-yl)pyridin-3-yl)-4-oxo-1,4-dihydroquinoline-3-carboxylate]: 98%.
Next, `CCNC(=O)Nc1cc(-c2nc(-c3ccccc3)cs2)c(-c2cc3c(=O)c(C(=O)O)cn(C[C@H]4CCCN4CC)c3cc2OCCN(CC)CC)cn1` [Example 45, (R)-7-(2-(diethylamino)ethoxy)-1-((1-ethylpyrrolidin-2-yl)methyl)-6-(6-(3-ethylureido)-4-(4-phenylthiazol-2-yl)pyridin-3-yl)-4-oxo-1,4-dihydroquinoline-3-carboxylic acid]: 102%; `CCNC(=O)Nc1cc(-c2nc(-c3ccccc3)cs2)c(-c2cc3c(=O)c(C(=O)O)cn(CCN(C)C)c3cc2OCCN(CC)CC)cn1` [Example 46, 7-(2-(diethylamino)ethoxy)-1-(2-(dimethylamino)ethyl)-6-(6-(3-ethylureido)-4-(4-phenylthiazol-2-yl)pyridin-3-yl)-4-oxo-1,4-dihydroquinoline-3-carboxylic acid]: 108%.
The figure for `CCNC(=O)Nc1cc(-c2nc(C(F)(F)F)cs2)c(-c2cc3c(=O)c(C(=O)O)cn(CC)c3cc2OCCN(C)C)cn1` [Example 47, 7-(2-(dimethylamino)ethoxy)-1-ethyl-6-(6-(3-ethylureido)-4-(4-(trifluoromethyl)thiazol-2-yl)pyridin-3-yl)-4-oxo-1,4-dihydroquinoline-3-carboxylic acid] is 110%; for `CCNC(=O)Nc1cc(-c2nc(-c3ccccc3)cs2)c(-c2cc3c(=O)c(C(=O)O)cn(CCN(C)C)c3cc2OCCN2CCOCC2)cn1` [Example 48, 1-(2-(dimethylamino)ethyl)-6-(6-(3-ethylureido)-4-(4-phenylthiazol-2-yl)pyridin-3-yl)-7-(2-morpholinoethoxy)-4-oxo-1,4-dihydroquinoline-3-carboxylic acid] it is 99%; for `CCNC(=O)Nc1cc(-c2nc(-c3ccccc3)cs2)c(-c2cc3c(=O)c(C(=O)O)cn(C[C@@H]4CCCN4CC)c3cc2OCCN(CC)CC)cn1` [Example 49, (S)-7-(2-(diethylamino)ethoxy)-1-((1-ethylpyrrolidin-2-yl)methyl)-6-(6-(3-ethylureido)-4-(4-phenylthiazol-2-yl)pyridin-3-yl)-4-oxo-1,4-dihydroquinoline-3-carboxylic acid] it is 105%.
For the molecule `CCNC(=O)Nc1cc(-c2nc(C(F)(F)F)cs2)c(-c2cc3c(=O)c(C(=O)O)cn(CCN4CCOCC4)c3cc2F)cn1` [Example 50, 6-(6-(3-ethylureido)-4-(4-(trifluoromethyl)thiazol-2-yl)pyridin-3-yl)-7-fluoro-1-(2-morpholinoethyl)-4-oxo-1,4-dihydroquinoline-3-carboxylic acid], the inhibition at 1 µM was determined as 106%.
`CCNC(=O)Nc1cc(-c2nc(C(F)(F)F)cs2)c(-c2cc3c(=O)c(C(=O)O)cn(CC(C)N(C)C)c3cc2F)cn1` (stereo not drawn) [Example 51, 1-(2-(dimethylamino)propyl)-6-(6-(3-ethylureido)-4-(4-(trifluoromethyl)thiazol-2-yl)pyridin-3-yl)-7-fluoro-4-oxo-1,4-dihydroquinoline-3-carboxylic acid]: the inhibition at 1 µM worked out at 95%.
The figure for `CCNC(=O)Nc1cc(-c2nc(C(F)(F)F)cs2)c(-c2cc3c(=O)c(C(=O)O)cn([C@H](CO)CC(C)C)c3cc2F)cn1` [Example 52, (S)-6-(6-(3-ethylureido)-4-(4-(trifluoromethyl)thiazol-2-yl)pyridin-3-yl)-7-fluoro-1-(1-hydroxy-4-methylpentan-2-yl)-4-oxo-1,4-dihydroquinoline-3-carboxylic acid] is 103%.
Next, `CCNC(=O)Nc1cc(-c2nc([C@H](N)C(C)C)cs2)c(-c2ccc3c(c2)c(=O)c(C(=O)O)cn3[C@H](CO)C(C)(C)C)cn1` [Example 53, 6-(4-(4-((R)-1-amino-2-methylpropyl)thiazol-2-yl)-6-(3-ethylureido)pyridin-3-yl)-1-((S)-1-hydroxy-3,3-dimethylbutan-2-yl)-4-oxo-1,4-dihydroquinoline-3-carboxylic acid]: 46%; `CCNC(=O)Nc1cc(-c2nc(C(F)(F)F)cs2)c(-c2cc3c(=O)c(C(=O)O)cn(C4CC4)c3cc2Cl)cn1` [Example 54, 7-chloro-1-cyclopropyl-6-(6-(3-ethylureido)-4-(4-(trifluoromethyl)thiazol-2-yl)pyridin-3-yl)-4-oxo-1,4-dihydroquinoline-3-carboxylic acid]: 126%.
The figure for `CCNC(=O)Nc1cc(-c2nc(C(F)(F)F)cs2)c(-c2cc3c(=O)c(C(=O)O)cn(CCN(C)C)c3cc2NCCN(C)C)cn1` [Example 55, 1-(2-(dimethylamino)ethyl)-7-(2-(dimethylamino)ethylamino)-6-(6-(3-ethylureido)-4-(4-(trifluoromethyl)thiazol-2-yl)pyridin-3-yl)-4-oxo-1,4-dihydroquinoline-3-carboxylic acid] is 100%; for `CCNC(=O)Nc1cc(-c2nc(C(F)(F)F)cs2)c(-c2ccc3c(c2)c(=O)c(C(=O)O)cn3CC(C)N2CCOCC2)cn1` (stereo not drawn) [Example 56, 6-(6-(3-Ethylureido)-4-(4-(trifluoromethyl)thiazol-2-yl)pyridin-3-yl)-1-(2-morpholinopropyl)-4-oxo-1,4-dihydroquinoline-3-carboxylic acid] it is 101%.
